From patent publication US20090192154A1, “SULTAM DERIVATIVES” (Asahi Kasei Pharma Corporation, priority 2007, published 2009)
pIC50: −log10 of the molar value. Where two headings read alike, the source gives them in different places.

Key:
Assay type in all cases: biochemical
[1] = target: T1, human recombinant ADAMTS-5 (Homo sapiens, UniProt Q9UNA0); test: Inhibitory action for ADAMTS-5 (aggrecanase) activity, FRET assay with aggrecan interglobular domain peptide; details: human recombinant ADAMTS-5, 37° C. for 60 minutes
T1 construct: human recombinant ADAMTS-5 in which 6×His tag was added to the C-end side of Asn624; 6xHis (C); made in house
T1 sequence (Q9UNA0 262-624 limits assumed): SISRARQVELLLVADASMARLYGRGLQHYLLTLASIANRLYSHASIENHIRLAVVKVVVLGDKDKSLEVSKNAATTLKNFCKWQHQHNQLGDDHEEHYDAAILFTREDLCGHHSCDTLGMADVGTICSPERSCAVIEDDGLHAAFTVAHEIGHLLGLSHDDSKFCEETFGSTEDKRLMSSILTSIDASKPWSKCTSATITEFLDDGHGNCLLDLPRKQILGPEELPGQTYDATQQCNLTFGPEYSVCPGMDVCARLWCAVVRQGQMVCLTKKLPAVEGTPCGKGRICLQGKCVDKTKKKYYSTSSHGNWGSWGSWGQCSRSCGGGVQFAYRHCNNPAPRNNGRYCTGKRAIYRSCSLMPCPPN
Procedure: The enzyme protein used for measurement of ADAMTS-5 activity was human recombinant ADAMTS-5. An insect cell line was prepared that stably expressed human recombinant ADAMTS-5 in which 6×His tag was added to the C-end side of Asn624. The culture supernatant of this cell line was collected, and the obtained culture supernatant was purified using Ni-NTA agarose (Qiagen)
A matrix peptide used for measurement of aggrecanase activity was Interglobular domain of human recombinant aggrecan. With reference to the method of Hughes, et al. (J. Biol. Chem. 272: pp. 20269-20274, 1997), the peptide of Thr331 to Gly457 of human aggrecan was contained, and the FLAG epitope peptide was added at the N-terminal, and the C-terminal was modified with biotin. This peptide was expressed using Escherichia coli, and the obtained Escherichia coli was subjected to lysis, and then the peptide was purified with an affinity column (Promega)
Desired concentration of the test compound was reacted in 40 μl of a mixed reaction solution containing 50 mmol/L Tris-HCl (pH 7.5), 100 mmol/L NaCl, 10 mmol/L CaCl2, 0.05% Brij35 and human recombinant ADAMTS-5 and Interglobular domain peptide of human recombinant aggrecan at 37° C. for 60 minutes. To the mixed reaction solution was added 10 μl of 0.2 mol/L EDTA to stop the enzyme reaction. Five μl of this mixed reaction solution was harvested and transferred to a 384 well plate. 0.2% Bovine albumin, cryptate-labeled Streptavidin (CIS bio) and XL 665-labeled anti-FLAG (M2) antibody (CIS bio) suitably diluted with PBS (−)-containing 800 mmol/L potassium fluoride were added thereto so that the amount of each of the added matters was 2.5 μl. The resultant solution was incubated at room temperature. After 60 minutes, the fluorescence value was measured at 340 nm excitation wavelength and 615 nm and 665 nm measurement wavelengths with a fluorescence plate reader. When the matrix peptide was not cleaved, the fluorescence resonance energy transfer from cryptate to XL665 occurs and long life fluorescence of 665 nm wavelength is generated. […] Therefore, the aggrecanase activity was calculated using the change of the ratio of the fluorescence value at 665 nm and the fluorescence value at 615 nm. […] The inhibitory action for aggrecanase activity was represented by IC50 value (μmol/L). Exp. No. in Table 2 represents Example number.

[2] = target: T2, activated human recombinant MMP-2 (Homo sapiens, UniProt P08253); test: Inhibitory action for MMP-2 activity, fluorescence peptide assay; details: activated human recombinant MMP-2, 30° C. for 45 minutes
T2 construct: purchased R&D
T2 sequence (P08253 110-660): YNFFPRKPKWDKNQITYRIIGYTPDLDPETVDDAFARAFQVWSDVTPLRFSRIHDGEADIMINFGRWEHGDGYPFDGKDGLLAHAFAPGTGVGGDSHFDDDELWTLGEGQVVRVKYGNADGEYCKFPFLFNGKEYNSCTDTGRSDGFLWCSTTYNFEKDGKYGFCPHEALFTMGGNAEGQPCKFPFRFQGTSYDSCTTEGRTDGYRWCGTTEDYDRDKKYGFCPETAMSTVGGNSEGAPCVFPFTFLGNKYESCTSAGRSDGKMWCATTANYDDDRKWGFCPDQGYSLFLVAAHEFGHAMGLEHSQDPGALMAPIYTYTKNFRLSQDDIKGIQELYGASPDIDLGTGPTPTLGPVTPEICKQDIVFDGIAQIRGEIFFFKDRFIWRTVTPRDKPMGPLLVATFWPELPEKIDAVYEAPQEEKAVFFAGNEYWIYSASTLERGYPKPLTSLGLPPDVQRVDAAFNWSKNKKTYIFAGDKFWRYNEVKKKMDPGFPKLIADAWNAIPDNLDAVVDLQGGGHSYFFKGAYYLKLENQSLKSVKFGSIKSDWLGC
Procedure: (§1) Desired concentration of the test compound was reacted in 100 μl of a mixed reaction solution containing 50 mmol/L Tris-HCl (pH7.5), 150 mmol/L NaCl, 10 mmol/LCaCl2, 0.05% Brij35 and activated human recombinant MMP-2 (R&D) and fluorescence peptide matrix Mca-ProLeuGlyLeuDpaAlaArg-NH2 (R&D) at 30° C. for 45 minutes. To the mixed reaction solution, 10 μl of 0.2 mol/L EDTA was added to stop the enzyme reaction. Then, the fluorescence value was measured at 320 nm excitation wavelength and 405 nm measurement wavelength with a fluorescence plate reader.

[3] = target: T3, activated human recombinant MMP-3 (Homo sapiens, UniProt P08254); test: Inhibitory action for MMP-3 activity, fluorescence peptide assay; details: activated human recombinant MMP-3, 30° C. for 45 minutes
T3 construct: purchased R&D
T3 sequence (P08254 100-477): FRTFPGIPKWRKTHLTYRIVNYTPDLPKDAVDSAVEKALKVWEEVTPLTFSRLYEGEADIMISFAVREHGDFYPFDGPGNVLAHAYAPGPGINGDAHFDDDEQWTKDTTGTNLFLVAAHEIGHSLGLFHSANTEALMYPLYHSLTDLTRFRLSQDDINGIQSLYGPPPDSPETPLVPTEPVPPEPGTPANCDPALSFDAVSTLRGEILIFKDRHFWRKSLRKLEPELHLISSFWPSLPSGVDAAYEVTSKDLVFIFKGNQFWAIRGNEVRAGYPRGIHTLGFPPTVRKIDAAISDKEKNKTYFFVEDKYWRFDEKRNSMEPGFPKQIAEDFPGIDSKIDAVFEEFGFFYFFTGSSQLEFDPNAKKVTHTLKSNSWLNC
Procedure: as §1, with “mmol/LNaCl,” for “mmol/L NaCl,”, “MMP-3” for “MMP-2”, “Mca-ArgProLysProValGlu-Nval-TrpArgLys (Dnp) —NH2” for “Mca-ProLeuGlyLeuDpaAlaArg-NH2”, “solution was added” for “solution,”, “EDTA” for “EDTA was added”

[4] = target: T4, activated human recombinant MMP-14 catalytic domain (Homo sapiens, UniProt P50281); test: Inhibitory action for MMP-14 activity, fluorescence peptide assay; details: 30° C. for 45 minutes
T4 construct: purchased Calbiochem
Procedure: as §1, with “mmol/LNaCl,” for “mmol/L NaCl,”, “MMP-14 catalytic domain (Calbiochem)” for “MMP-2 (R&D)”, “matrix” for “matrix Mca-ProLeuGlyLeuDpaAlaArg-NH2”, “solution was added” for “solution,”, “EDTA” for “EDTA was added”

[5] = read-out: ADAMTS-5 inhibitory activity IC50 value

Row | SMILES | pIC50 [1, 5] | also measured
1 | CCC(C(=O)O)N1Cc2sc(/C=C/c3ccc(-c4ccccc4)cc3)cc2S1(=O)=O (single isomer, unassigned) [Example 41] | ≥ 5.70 | –
2 | CCC(C(=O)O)N1Cc2sc(-c3ccc(-c4ccc5c(ccn5C)c4)cc3)cc2S1(=O)=O (centres unmarked) [Example 53] | ≥ 5.70 | –
3 | CCC(C(=O)O)N1Cc2sc(-c3ccc(/C=C/c4ccc(OC)cc4)cc3)cc2S1(=O)=O (centres unmarked) [Example 60] | ≥ 5.70 | –
4 | CCC(C(=O)O)N1Cc2sc(/C=C/c3ccc(-c4ccccc4)cc3)cc2S1(=O)=O (centres unmarked) [Example 22] | ≥ 5.70 | –
5 | CC(C)C(C(=O)NO)N1Cc2sc(-c3ccccc3)cc2S1(=O)=O (centres unmarked) [Example 5] | – | pIC50 ([1]; read-out: ADAMTS-5 IC50): 5.68
6 | CCC(C(=O)NO)N1Cc2sc(/C=C/c3ccc(-c4ccccc4)cc3)cc2S1(=O)=O (centres unmarked) [Example 26] | ≥ 5.70 | –
7 | O=C(NO)C(c1ccccc1)N1Cc2sc(-c3ccccc3)cc2S1(=O)=O (centres unmarked) [Example 14] | – | pIC50 ([1]; read-out: ADAMTS-5 IC50): 5.15
8 | CCC(C(=O)O)N1Cc2sc(-c3ccc(/C=C/c4ccccc4)cc3)cc2S1(=O)=O (centres unmarked) [Example 30] | ≥ 5.70 | –
9 | CCC(C(=O)O)N1Cc2sc(-c3ccc(-c4cncnc4)cc3)cc2S1(=O)=O (centres unmarked) [Example 56] | ≥ 5.70 | –
10 | CCC(C(=O)NO)N1Cc2sc(-c3ccccc3)cc2S1(=O)=O (centres unmarked) [Example 12] | – | pIC50 ([1]; read-out: ADAMTS-5 IC50): 5.70
11 | CC(C(=O)NO)N1Cc2sc(-c3ccccc3)cc2S1(=O)=O (centres unmarked) [Example 11] | – | pIC50 ([1]; read-out: ADAMTS-5 IC50): 5.40
12 | CCC(C(=O)NO)N1Cc2sc(-c3ccccc3)cc2S1(=O)=O (centres unmarked) [Example 18] | ≥ 5.70 | –
13 | O=C(NO)C(C1CCCCC1)N1Cc2sc(-c3ccccc3)cc2S1(=O)=O (centres unmarked) [Example 13] | – | pIC50 ([1]; read-out: ADAMTS-5 IC50): 5.70
14 | CCC(C(=O)O)N1Cc2sc(-c3ccc(OCc4ccccc4)c(F)c3)cc2S1(=O)=O (centres unmarked) [Example 113] | – | pIC50 [2]: ≤ 4.52; pIC50 [3]: ≤ 4.52; pIC50 [4]: ≤ 4.52
15 | CCC(C(=O)O)N1Cc2sc(-c3ccc(-c4cc5ccccc5[nH]4)cc3)cc2S1(=O)=O (centres unmarked) [Example 54] | ≥ 5.70 | –

More lines, main results first:

Row | pIC50 [1, 5] | SMILES | also measured
16 | ≥ 5.70 | CCC(C(=O)O)N1Cc2sc(-c3ccc(/C=C/c4ccc(-c5ccccc5)cc4)cc3)cc2S1(=O)=O (centres unmarked) [Example 96] | pIC50 [2]: ≤ 4.52; pIC50 [3]: ≤ 4.52; pIC50 [4]: ≤ 4.52
17 | ≥ 5.70 | CCC(C(=O)O)N1Cc2sc(-c3ccc(/C=C/c4ccc(C)cc4)cc3)cc2S1(=O)=O (centres unmarked) [Example 95] | –
18 | ≥ 5.70 | CCC(C(=O)O)N1Cc2sc(-c3ccc(-c4ccc5c(cnn5C)c4)cc3)cc2S1(=O)=O (centres unmarked) [Example 102] | pIC50 [3]: ≤ 4.52; pIC50 [4]: ≤ 4.52
19 | ≥ 5.70 | CCC(C(=O)O)N1Cc2sc(-c3ccc(/C=C/c4ccc(Cl)cc4)cc3)cc2S1(=O)=O (centres unmarked) [Example 94] | –
20 | ≥ 5.70 | CCC(C(=O)O)N1Cc2sc(-c3ccc(/C=C/c4ccsc4)cc3)cc2S1(=O)=O (centres unmarked) [Example 97] | –
21 | ≥ 5.70 | CCC(C(=O)O)N1Cc2sc(C#Cc3ccc(-c4ccccc4)cc3)cc2S1(=O)=O (centres unmarked) [Example 69] | –
22 | ≥ 5.70 | CCC(C(=O)O)N1Cc2sc(C#Cc3ccc(N(C)C)cc3)cc2S1(=O)=O (centres unmarked) [Example 66] | –
23 | ≥ 5.70 | CCC(C(=O)O)N1Cc2sc(-c3ccc(C#Cc4ccccc4)cc3)cc2S1(=O)=O (centres unmarked) [Example 61] | –
24 | ≥ 5.70 | CCC(C(=O)O)N1Cc2cc(-c3ccc(COc4ccc(Oc5ccccc5)cc4)cc3)sc2S1(=O)=O (centres unmarked) [Example 104] | pIC50 [2]: ≤ 4.52; pIC50 [3]: ≤ 4.52; pIC50 [4]: ≤ 4.52
25 | ≥ 5.70 | CCC(C(=O)O)N1Cc2sc(-c3ccc(NC(=O)c4ccc(OCc5ccccc5)cc4)cc3)cc2S1(=O)=O (centres unmarked) [Example 147] | pIC50 [2]: ≤ 4.52; pIC50 [3]: ≤ 4.52; pIC50 [4]: ≤ 4.52
